Patent US20250092345A1, “INTER ORGAN PLATFORM FOR MICROPHYSIOLOGICAL SYSTEM ON A CHIP” (THE TRUSTEES OF COLUMBIA UNIVERSITY IN THE CITY OF NEW YORK, priority 2020, published 2025)
Values belong to the compound of their own block, whether it stands above or below them.

Experiments:
[1] = FITC absorption and diffusive transport in the integrated platform; type: physicochemical
Description: Fluorescein isothiocyanate (FITC, 10 mM in DMSO; Sigma Aldrich) was circulated for the integrated platform to determine potential hydrophobic small molecule absorption, given its physical and chemical properties. FITC was added at a concentration of 10 µM to 8 mL of 1:1 bone tumor/cardiac mixed media and introduced into the platform. The control was the FITC-containing media in a standard 24-multiwell plate (Corning). Aliquots from the reservoir, bone tumor, and cardiac tissue chambers were taken at 12, 24, 48 and 72 hours and measured for fluorescent signal using a spectrophotometer (Biotek).
Measurements of FITC concentrations were used to estimate the spread of linsitinib within the platform via diffusive circulating transport. Four independent platforms were filled with 8 mL of 1:1 mixed media each, after which 10 µM of FITC was injected into the reservoir. The platforms were connected to the peristaltic pumps run at 100 rpm to generate physiologically relevant fluid flow rate and shear stress. Aliquots were taken from the reservoir, bone and cardiac chambers at 0, 2, 4, 6, and 12 hours post injection, and assayed for fluorescence signal on a spectrophotometer (Biotek).

[2] = tested on: cardiac muscle; experiment: Cardiac beat frequency after drug injection into the reservoir of the InterOrgan platform; type: cell-based, human; conditions: 10 μM into reservoir at t=0; assessed at 24 and 72 hours
[3] = tested on: miRNAs in heart tissues; type: cell-based, human
Description: We used the GeneChip™ miRNA 4.0 Array (ThermoFisher) to measure differential expression of miRNAs in heart tissues following Dox treatment.
Differential expressions of all other miRNAs were highly significant in the InterOrgan platform, based on Normalized Enrichment Scores (NES), showing activity consistent with published clinical results for 20 out of the 22 miRNAs (FIGS. 14A-14F).
miRNA was isolated using miRNeasy Mini Kit from (Qiagen, 217004). Samples were shipped on dry ice to Advanced BioMedical Laboratories and assayed using the miRNA 4.0 Genechip Array (ThermoFisher). Results were analyzed using the TAC 4.0 software (ThermoFisher). Additional Ingenuity Pathway Analysis was performed using the methodology described above.
To assess the activity of miRNAs, gene set enrichment analysis (GSEA) was performed of their targets, as determined by MultiMiR (release 3.11) and RBio-mirGS (update 0.2.12) biocoductor packages (in R) for genes that were differentially expressed after Dox treatment. Since miRNAs generally repress their targets, the sign of the normalized enrichment score was reversed to correctly report their change in activity. For instance, a positive target enrichment for miR-1273a's targets was reported as a negative NES (NES=−21.31) because it is consistent with its downregulation. […]

[4] = tested on: all tissues in the InterOrgan platform (heart, liver, bone, skin); experiment: Doxorubicin-induced toxicity: cell viability, glucose consumption, mitochondrial activity of engineered tissues; type: cell-based, human; conditions: 30 μM Dox, 72 hours
Description: Metabolic Assays: Glucose, lactate, glutamate and glutamine were measured in parallel using the bioluminescent Glucose-Glo™ (Promega, cat. no. J6021), Lactate-Glo™ (Promega, cat. No. J5021), Glutamine/Glutamate-Glo™ (Promega, cat. no. J8021) and Glutamate-Glo™ (Promega, cat. no. J7021) assays according to the manufacturer's protocols.

[5] = tested on: engineered skin tissues; experiment: Doxorubicin-induced toxicity: skin functional assays; type: cell-based, human; conditions: 30 μM Dox, both Isolated and InterOrgan cultures
Description: Skin functional assays: For drug-induced toxicity studies, electrical current was run through the tissues by placing electrodes on either side of the skin tissue and the change in resistance was subsequently measured and read as a function of the barrier. All tissues were analyzed using the same electrode holder setup to standardize the positions of electrodes with respect to the tissue. To analyze the transport of molecules through the skin barrier, Fluorescein (FITC, ThermoFisher, D3306) powder was added to the epidermis of skin tissues. After 3 hrs, 100 μl of supernatant from the dermal region below the skin tissue was sampled and assayed on a plate reader (BioTex SynergyHTX).

[6] = tested on: human engineered cardiac tissue; experiment: Validation of engineered cardiac tissue by drugs with known cardiac effects (beat frequency); type: cell-based; conditions: doxorubicin 1 μM over 72 hours
Description: The cardiac tissue model was generated from iPS-derived cardiomyocytes and fibroblasts encapsulated in fibrin hydrogel, as in our previous studies. The tissue was formed between two elastic pillars causing cell elongation and alignment, and subjected to electrical stimulation to synchronously contract and work against the pillars.
Specifically, linsitinib was dissolved at a 10 mM concentration in DMSO (Corning) and mixed in with the respective cell medium at a […] concentration unless otherwise noted. Vehicle treatments involved just the addition of DMSO at identical volumes as a control. Tissues were randomly assigned to experimental groups. Medium was changed every day.
To measure the cardiac contractility online, we took contractility videos of the tissues that were analyzed using the native MATLAB code we previously developed. Tissue contractility was measured by tracking the change in tissue area as a function of time. […] Absolute differences in cell area from the baseline frame were then calculated to create a time course of cell area changes over time. The resulting time courses were analyzed using a native MATLAB (MATHWorks) automated peak finding algorithm to determine locations of maximum cell contractions in the time profiles. […] The rate of proarrhythmic events was calculated by the ratio of the number of proarrhythmic events over the total number of beats.

[7] = tested on: endothelial barrier; experiment: Endothelial barrier permeability under flow shear (ECs and supporting MSCs on mesh inserts); type: cell-based, human

Compound: Fluorescein isothiocyanate [FITC]
absorption by the platform ([1]; 10 μM circulated for 72 hours, compared to multi-well plates): without any measurable absorption
time to equilibrium across both models ([1]; 10 μM injected into reservoir): approximately 6 hours
time to uniform concentration in all areas of the platform ([1]; 10 μM injected into reservoir): ≤ 12 h

Compound: CNC[C@H](O)c1ccc(O)c(O)c1 [epinephrine]
beat rate of cardiac muscle [2]: increased the beat rate in a time-dependent manner

miR-1273a fold change (FC) [3]: −30.6
Compound: COc1cccc2c1C(=O)c1c(O)c3c(c(O)c1C2=O)C[C@@](O)(C(=O)CO)C[C@@H]3O[C@H]1C[C@H](N)[C@H](O)[C@H](C)O1 [doxorubicin]
cell viability [4]: significantly decreased
glucose consumption [4]: significantly decreased
mitochondrial activity [4]: significantly decreased
diffusional permeability of skin [5]: increased
electrical resistance of skin [5]: decreased
beat frequency [6]: initially increased, and then decreased following prolonged exposure

Compound: CN(CCOc1ccc(NS(C)(=O)=O)cc1)CCc1ccc(NS(C)(=O)=O)cc1 [dofetilide]
beat rate of cardiac muscle [2]: decreased

Compound: thrombin
barrier permeability in response to thrombin [7]: physiologic increase in barrier permeability
